According to ChEMBL document CHEMBL4417628, “Small molecule antagonists of dusp5 and methods of use” (2018):
Where a chain is given by its changes, count along the chain named. Activity calls are given as the source filed them. No cut-off for these calls is given here.

What was measured:
[1] = target: T1, Tyrosine-protein phosphatase non-receptor type 1 (Homo sapiens, UniProt P18031); experiment: Inhibition of PTPN1 (unknown origin) using PNPP substrate incubated for 15 mins relative to control
T1 sequence (P18031 whole entry): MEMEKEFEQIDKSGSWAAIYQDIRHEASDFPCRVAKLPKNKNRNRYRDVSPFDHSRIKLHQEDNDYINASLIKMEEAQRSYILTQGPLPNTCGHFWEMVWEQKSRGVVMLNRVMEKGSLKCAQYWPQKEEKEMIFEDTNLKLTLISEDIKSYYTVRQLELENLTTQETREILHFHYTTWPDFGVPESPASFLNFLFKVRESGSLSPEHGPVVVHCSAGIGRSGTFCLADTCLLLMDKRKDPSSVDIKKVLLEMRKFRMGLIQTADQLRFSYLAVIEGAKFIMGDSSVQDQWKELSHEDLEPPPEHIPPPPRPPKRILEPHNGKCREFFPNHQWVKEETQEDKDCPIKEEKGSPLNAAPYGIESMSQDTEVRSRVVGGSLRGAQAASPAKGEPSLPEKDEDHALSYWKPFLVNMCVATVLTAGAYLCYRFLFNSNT

[2] = test system: T2, Dual specificity protein phosphatase 5 (Homo sapiens), Q16690 [C263S]; experiment: Binding affinity to N-terminal hexa-histidine-tagged and 15N-labeled DUSP5 C263S mutant (unknown origin) expressed in Escherichia coli BL21 (DE3) at 500 uM by 2D 1H-15N HSQC NMR assay
T2 sequence (whole entry): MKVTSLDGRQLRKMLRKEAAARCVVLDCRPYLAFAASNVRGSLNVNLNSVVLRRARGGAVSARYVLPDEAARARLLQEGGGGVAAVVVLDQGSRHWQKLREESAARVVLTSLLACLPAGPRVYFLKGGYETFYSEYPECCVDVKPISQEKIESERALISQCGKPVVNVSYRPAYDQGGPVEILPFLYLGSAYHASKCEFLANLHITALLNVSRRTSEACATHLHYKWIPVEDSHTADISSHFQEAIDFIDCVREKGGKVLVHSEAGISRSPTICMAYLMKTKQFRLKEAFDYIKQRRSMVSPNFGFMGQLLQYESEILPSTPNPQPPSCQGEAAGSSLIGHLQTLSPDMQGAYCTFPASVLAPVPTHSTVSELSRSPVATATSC

[3] = target: T3, Dual specificity protein phosphatase 5 (Homo sapiens) (UniProt Q16690); experiment: Potency index, ratio of IC50 for NTS to IC50 for test compound for inhibition of full length DUSP5 (unknown origin) assessed as reduction in de-phosphorylation of GST-tagged recombinant phosphorylated ERK2 incubated for 15 mins by SDS-PAGE based immunoblot assay
T3 sequence (whole entry): T2 sequence (whole entry) with S263C

IC50 [1]: Not Active
Activity [2]: Active
Ratio IC50 [3]: 1000
SMILES: O=S(=O)([O-])c1cc(O)c2c(S(=O)(=O)[O-])cccc2c1.[Na+].[Na+]
